{
  "source": "patent US20100196521A1",
  "about": "“Formulation for the treatment of hypoxia and related disorders” (priority 2009, published 2010)",
  "key": {"[1]": {"system": "methemoglobinemia model mice (sodium nitrite)", "test": "Sodium nitrite methemoglobinemia model, survival duration", "type": "in vivo, NIH mice", "details": "male quasi; for Survival Duration: observed 90 min; for Prolonged Percentage: vs negative control", "text": "This test was designed according to the relevant provisions of The Management of Medicine Registration issued by the State Food and Drug Administration (SFDA) of the People's Republic of China, and The Assemble of Guiding Principle of Pre-clinical Research on New Drugs (in Western Medicine) from the Bureau of Drug Administration, Ministry of Public Health, People's Republic of China. Five test groups were designed for this test, namely the negative control group (A), the positive control medicine group (B), and three groups administrated with the test item at the high (C), medium (D), and low (E) dosage levels. SPF class NIH mice were randomly distributed into 10-12 pieces (male quasi) in each group. The design of experiment was described in Table 5.\nIn establishing the methemoglobinemia model, a 2% sodium nitrite was injected into abdomen of the mice (male mice: 240 mg/kg, 12 mL/kg; female mice: 260 mg/kg, 13 mL/kg). Stopwatch was immediately started to record time and simultaneously, vegetable oil or the test item was applied to the mice of the respective group. Mice in the positive control group I (group B-I) were administered with Nimodipine through gastric gavage an hour before model was established, while those in the positive control group II were administered Nimodipine through gastric gavage immediately upon the setting up of the model. […]"}, "[2]": {"system": "decapitated mice (acute cerebral ischemic hypoxia)", "test": "Global cerebral ischemia (decapitation method), formal test", "type": "in vivo, NIH mice", "details": "group B: 2.0 mg/kg hypodermic injection once a day for 2 days", "text": "Five test groups were designed for this test, namely the negative control group (A), the positive control medicine group (B), and three groups administrated with the test item at the high (C), medium (D), and low (E) dosage levels. SPF class NIH mice were randomly distributed into 14 pieces in each group. The design of experiment was described in Table 9. Mice in negative control group (A) were topically applied with vegetable oil, whereas those in positive control group (B) were administrated with Nimodipine by hypodermic injection once a day for 2 consecutive days. Mice in groups (C), (D), and (E) received the test item through skin administration once a day for 7 consecutive days. 60 minutes after the final administration of the test item and vegetable oil to the mice of the corresponding groups, and 30 minutes after the final administration of Nimodipine to the mice of the positive medicine control group, the heads of mice were rapidly severed from the back of ear root with a pair of sharp scissors (decapitation method). The gasping duration and gasping frequency were immediately recorded with a stopwatch The results are shown as follows: […]"}, "[3]": {"system": "cerebral ischemic hypoxia mice", "test": "Cerebral circulatory disturbance hypoxia (common carotid artery and vagus ligation), survival", "type": "in vivo, NIH mice", "details": "group B: 2.0 mg/kg hypodermic injection once a day for 5 days", "text": "Five test groups were designed for this test, namely the negative control group (A), the positive control medicine group (B), and three groups administrated with the test item at the high (C), medium (D), and low (E) dosage levels. SPF class NIH mice were randomly distributed into 12 to 14 pieces in each group. The design of experiment was described in Table 15.\nMice in negative control group (A) were topically applied with vegetable oil, whereas those in positive control group (B) were administrated with Nimodipine by hypodermic injection. Mice in groups (C), (D), and (E) received the test item through skin administration. All the five groups received the corresponding item once a day for 5 consecutive days. 50 minutes after the final administration of the test item, and 30 minutes after the final administration of Nimodipine, the mice were given an intraperitoneal injection of Urethane (8%, 0.8 g/kg.bw, 10 mL/kg.bw) as anesthetics. The mice then underwent a separation of the left and right common carotid artery as well as the vagus, and were separately ligated with a No. 4 suture. Survival duration for the mice were immediately recorded with a stopwatch, with results as follows: […]"}, "[4]": {"system": "mice in low-pressure hypoxic environment", "test": "Hypobaric hypoxia survival test", "type": "in vivo, NIH mice", "details": "group B: 26 mg/kg gastric gavage, male quasi", "procedure": "Five test groups were designed for this test, namely the negative control group (A), the positive control medicine group (B), and three groups administrated with the test item at the high (C), medium (D), and low (E) dosage levels. SPF class NIH mice were randomly distributed into 12 pieces in each group. The design of experiment was described in Table 13.\nOne hour after administrating the positive control medicine, and 30 minutes after applying the test item or the negative control in the corresponding groups, the mice (6 mice/batch, 2 batches/group) were put in consecutive order into the vacuum drier connected with a suction (built in soda lime to absorb CO2 and water). The suction process was started until the air pressure dropped to a certain negative pressure (Male mouse: 580 mmHg; female mouse: 600 mmHg). Then, stopwatch was used to record the survival duration and the number of survivals in each group within 60 minutes."}, "[5]": {"system": "sodium nitrite induced hypoxia model mice", "test": "Study on blood pH and blood hypoxia (sodium nitrite induced hypoxia animal model)", "type": "in vivo, SD mice", "details": "10 days after", "procedure": "In this study regarding oxygen carrying ability of red blood cells, the test item was the formulation as described in Mixture 3 listed in Table 1 (the formulation). First of all, healthy SD mice were fed with sodium nitrite (17 mg/kg) by gastric gavage for 7 consecutive days to induce the hypoxia animal model. The mice were then randomly distributed into 8 groups: (A) normal mice blank control group, (B) normal mice applied with the formulation group (82.5 μL/kg), (C) model mice applied with vitamin C (62.5 mg/kg) control group, (D) model mice applied with vitamin E (104 mg/kg) control group, (E) model mice applied with vegetable oil (82.5 μL/kg) control group, (F) model mice applied with high dose of the formulation (330 μL/kg), (G) model mice applied with medium dose of the formulation (165 μL/kg), (H) model mice applied with low dose of the formulation (82.5 μL/kg). There were 12 mice for each group. On the 7th day of hypoxia model induction, the formulation was applied topically on the mice in the formulation groups (B, F, G and H), and equal amount of vegetable oil was also topically applied on the mice in the group (E). Vitamins C and E were administrated by gastric gavage to mice in groups (C) and (D) respectively. 10 days after the application of the corresponding items, blood samples were taken in which blood pH, arterial oxygen partial pressure (pO2), and blood oxygen were tested, and the results are as listed below: […]"}, "[6]": {"system": "sodium nitrite induced memory consolidated handicap mice", "test": "Memory consolidated handicap model, water maze test", "type": "in vivo, NIH mice", "details": "group B: 1.04 mg/kg intramuscular injection", "text": "[…], a cerebral hypoxic agent, was used to establish this memory consolidated handicap model. Due to its strong oxidation property, it could convert low value iron in the hemoglobin into high value iron and thus affects the hemoglobin to lose its anti-oxidative ability, resulting in Methemoglobinemia disease. Brain tissue is the most sensitive tissue to hypoxia and it would be injured once it experienced memory consolidated handicap. Therefore, in the establishment of this model, the applying of […] would affect the space recognition ability of the mice. This test was designed according to the relevant provisions of The Management of Medicine Registration issued by the State Food and Drug Administration (SFDA) of the People's Republic of China, and The Assemble of Guiding Principle of Pre-clinical Research on New Drugs (in Western Medicine) from the Bureau of Drug Administration, Ministry of Public Health, People's Republic of China. Five test groups were designed for this test, namely the negative control group (A), the positive control medicine group (B), and three groups administrated with the test item at the high (C), medium (D), and low (E) dosage levels. […] The design of experiment was described in Table 11. Each group of mice was continuously trained for 5 days, once in the morning and once in the afternoon, for 60 seconds in each training session. Before the training session on the afternoon of the 5th day, sodium nitrite was administered at dose level of 160 mg/kg to the mice through hypodermic injection to induce the mice to experience memory consolidated handicap symptom. 30 minutes after medication, the water maze test was carried out. The aforesaid test was then repeated on the following morning."}, "[7]": {"details": "group B-I: 62 mg/kg gastric gavage an hour before model"}, "[8]": {"details": "group B-II: 62 mg/kg gastric gavage immediately upon model"}, "[9]": {"details": "group C: hypoxia model mice, 62.5 mg/kg gastric gavage"}, "[10]": {"details": "group D: hypoxia model mice, 104 mg/kg gastric gavage"}},
  "data": [
    {"molecule": "COCCOC(=O)C1=C(C)NC(C)=C(C(=O)OC(C)C)C1c1cccc([N+](=O)[O-])c1", "note": "(stereo not shown) [Nimodipine]", "values": [
      {"measurement": "Survival Duration", "setting": "[1]; [7]", "result": "48.44 ± 21.36", "unit": "min"},
      {"measurement": "Prolonged Percentage", "setting": "[1]; [7]", "result": 56.26, "unit": "%"},
      {"measurement": "Survival Duration", "setting": "[1]; [8]", "result": "39.10 ± 17.30", "unit": "min"},
      {"measurement": "Prolonged Percentage", "setting": "[1]; [8]", "result": 26.24, "unit": "%"},
      {"measurement": "Gasping Duration, Time", "setting": "[2]", "result": "24.6 ± 4.6", "unit": "s"},
      {"measurement": "Gasping Frequency, Times", "setting": "[2]", "result": "14.5 ± 3.6", "unit": "Times"},
      {"measurement": "Gasping Duration, Extension Rate", "setting": "[2]; vs negative control", "result": 28.6, "unit": "%"},
      {"measurement": "Gasping Frequency, Increment Rate", "setting": "[2]; vs negative control", "result": 25.6, "unit": "%"},
      {"measurement": "Survival Duration", "setting": "[3]", "result": "55.4 ± 15.2", "unit": "min"},
      {"measurement": "Prolonged Percentage", "setting": "[3]; vs negative control", "result": 1224.3, "unit": "%"}
    ]},
    {"molecule": "CC(C)NCC(O)COc1cccc2ccccc12", "note": "(stereo not shown) [Propranolol]", "values": [
      {"measurement": "Prolonged Percentage", "setting": "[4]; vs negative control", "result": 108.4, "unit": "%"},
      {"measurement": "Survival Duration", "setting": "[4]; within 60 minutes", "result": "50.40 ± 16.33", "unit": "min"},
      {"measurement": "Survival Percentage", "setting": "[4]; within 60 minutes", "result": 41.7, "unit": "%"}
    ]},
    {"molecule": "O=C1O[C@H]([C@@H](O)CO)C(O)=C1O", "note": "[Vitamin C, vitamin C]", "values": [
      {"measurement": "Blood oxygen", "setting": "[5]; [9]", "result": "93.6 ± 1.3", "unit": "%"},
      {"measurement": "Blood pH", "setting": "[5]; [9]", "result": "7.420 ± 0.036"},
      {"measurement": "Oxygen partial pressure", "setting": "[5]; [9]", "result": "10.51 ± 0.96", "unit": "kPa"},
      {"measurement": "Time to Reach the Platform", "setting": "[6]; Day 5, Afternoon (after sodium nitrite 160 mg/kg)", "result": "46.9 ± 15.5", "unit": "s"},
      {"measurement": "Time to Reach the Platform", "setting": "[6]; Day 5, Morning (before sodium nitrite)", "result": "42.0 ± 24.3", "unit": "s"},
      {"measurement": "Time to Reach the Platform", "setting": "[6]; Day 6, Morning", "result": "41.7 ± 21.1", "unit": "s"}
    ]},
    {"molecule": "vitamin E", "values": [
      {"measurement": "Blood oxygen", "setting": "[5]; [10]", "result": "94.0 ± 2.1", "unit": "%"},
      {"measurement": "Blood pH", "setting": "[5]; [10]", "result": "7.455 ± 0.049"},
      {"measurement": "Oxygen partial pressure", "setting": "[5]; [10]", "result": "10.76 ± 2.14", "unit": "kPa"}
    ]}
  ]
}
